Counter-ions that a name gives are not always drawn.
Tests used:
[1] = tested on: Caenorhabditis elegans N2; experiment: lowest effective concentration for larval growth inhibition (size below effect threshold); higher = less potent; settings: exposure time 48 h
How it was run: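 In 96-well plates, 50 C. elegans N2 L1 larvae per well were cultured at 20°C for 48 h in K-medium with killed bacteria and 1% DMSO, plus the chemical at 0.5, 1, 5, 10, 50, 100 or 200 µM. Size was measured as per-worm extinction on a Biosort and log-transformed into well means. Taking the first dose where the plate-adjusted mean size sits under 5.665 and stays there at higher doses gives the lowest effective concentration.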

[2] = tested on: Caenorhabditis elegans N2; experiment: mean nematode size ln(EXT) after 48 h, plate-adjusted (DMSO control set to 6) (ln(EXT), control-adjusted); higher = larger nematodes / less growth inhibition; settings: exposure time 48 h
How it was run: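 Synchronised C. elegans N2 L1 larvae were grown for 48 h at 20°C in K-medium containing killed OP50, 1% DMSO and 0.5–200 µM chemical, at 50 per well and 4–6 wells per treatment. The Biosort recorded extinction for each worm, and a growth model removed debris. Worm size was obtained by natural-logging these values and averaging them per well. For plate adjustment, the vehicle control mean was subtracted and 6 was added.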

SMILES | lowest effective concentration [1] [µM] | mean nematode size ln(EXT) (ln) ([2]; 0.5 µM) | mean nematode size ln(EXT) (ln) ([2]; 1 µM) | mean nematode size ln(EXT) (ln) ([2]; 5 µM) | mean nematode size ln(EXT) (ln) ([2]; 10 µM) | mean nematode size ln(EXT) (ln) ([2]; 50 µM) | mean nematode size ln(EXT) (ln) ([2]; 100 µM) | mean nematode size ln(EXT) (ln) ([2]; 200 µM)
O=C(O)C(F)(F)C(F)(F)C(F)(F)C(F)(F)C(F)(F)F [Perfluorohexanoic acid] | > 200 | 5.47 | 5.55 | 5.6 | 5.67 | 5.69 | 5.73 | 5.86
CCOC(=O)c1ccccc1C(=O)OCC [Diethyl phthalate] | > 200 | 5.92 | 5.85 | 5.82 | 5.76 | 5.94 | 5.81 | 5.79
CC(O)CN(CCN(CC(C)O)CC(C)O)CC(C)O (stereo not drawn) [N,N,N',N'-Tetrakis(2-Hydroxypropyl)ethylenediamine] | 50 | 5.67 | 5.6 | 5.71 | 5.67 | 5.01 | 5.4 | 5.66
C=CN1CCCC1=O [N-Vinyl-2-pyrrolidone] | > 200 | 6.07 | 5.85 | 5.84 | 5.87 | 5.89 | 4.87 | 5.82
COC(=O)c1ccc(O)cc1 [Methylparaben] | > 200 | 6.02 | 5.99 | 5.95 | 6.11 | 6.02 | 6.06 | 5.7
CCC(C)=NO [2-Butanone oxime] | > 200 | 5.68 | 5.89 | 6.05 | 5.8 | 5.82 | 5.68 | 6.2
O=C1OC(=O)C2C3C=CC(C3)C12 (stereo not drawn) [4,7-Methanoisobenzofuran-1,3-dione, 3A,4,7,7A-tetrahydro-] | > 200 | 5.86 | 5.82 | 5.84 | 5.82 | 5.8 | 5.52 | 5.71
O=P(O)(O)CCCl [Ethephon] | > 200 | 5.96 | 5.93 | 5.97 | 5.94 | 6.03 | 6.05 | 5.88
CC(C)=CCC/C(C)=C/CO [Geraniol] | > 200 | 5.92 | 5.94 | 5.89 | 6.03 | 5.99 | 6.04 | 5.72
Cn1c(=O)c2c(ncn2C)n(C)c1=O [Caffeine] | > 200 | 5.87 | 5.94 | 5.87 | 5.91 | 5.94 | 5.85 | 5.75
CO[C@@H]1COCC[C@@H]1N[C@@H]1CC[C@@](C(=O)N2CCc3ncc(C(F)(F)F)cc3C2)(C(C)C)C1 | > 200 | 5.89 | 5.88 | 5.95 | 5.95 | 5.93 | 5.86 | 5.84
CCCc1ccccc1 [Propylbenzene] | 50 | 5.75 | 5.64 | 5.71 | 5.69 | 5.38 | 5.53 | 5.61
CCC(C)n1c(=O)[nH]c(C)c(Br)c1=O (stereo not drawn) [Bromacil] | > 200 | 6.06 | 6.23 | 6.18 | 6.3 | 6.1 | 6.23 | 5.81
CCCOc1ccc(S(=O)(=O)N2CCN(CC)CC2)cc1-c1nc2c(CC)n(Cc3ccccn3)nc2c(=O)[nH]1 | > 200 | 5.7 | 6.03 | 5.83 | 5.88 | 5.91 | 5.88 | 5.69
C[C@](N)(Cc1ccc(O)c(O)c1)C(=O)O [(-)-3-(3,4-Dihydroxyphenyl)-2-methyl-L-alanine sesquihydrate] | > 200 | 5.88 | 5.88 | 5.89 | 5.89 | 5.88 | 5.87 | 5.85
O=C(O)C1=NN(c2ccc(S(=O)(=O)O)cc2)C(=O)C1N=Nc1ccc(S(=O)(=O)O)cc1 (stereo not drawn) [Tartrazine] | > 200 | 6.02 | 5.96 | 5.97 | 5.98 | 6.03 | 5.85 | 5.92
CSc1nnc(C(C)(C)C)c(=O)n1N [Metribuzin] | > 200 | 5.83 | 5.88 | 5.91 | 5.85 | 5.84 | 5.87 | 5.78
Cc1ccc(C)c(C)c1 [1,2,4-Trimethylbenzene] | > 200 | 5.8 | 5.84 | 5.88 | 5.84 | 5.91 | 5.89 | 5.71
CCCC(=O)OCC [Ethyl butyrate] | > 200 | 5.9 | 5.93 | 5.96 | 6.03 | 5.94 | 5.91 | 5.82
CS(=O)(=O)OCCCCOS(C)(=O)=O [Busulfan] | > 200 | 5.98 | 5.93 | 5.94 | 5.95 | 5.98 | 5.94 | 5.8
O=C(O)CCCOc1ccc(Cl)cc1Cl [2,4-DB] | > 200 | 6.17 | 5.97 | 6.06 | 6.03 | 6.13 | 6.21 | 5.85

SMILES | lowest effective concentration [1] [µM] | mean nematode size ln(EXT) (ln) ([2]; 0.5 µM) | mean nematode size ln(EXT) (ln) ([2]; 1 µM) | mean nematode size ln(EXT) (ln) ([2]; 5 µM) | mean nematode size ln(EXT) (ln) ([2]; 10 µM) | mean nematode size ln(EXT) (ln) ([2]; 50 µM) | mean nematode size ln(EXT) (ln) ([2]; 100 µM) | mean nematode size ln(EXT) (ln) ([2]; 200 µM)
CCc1cnc(C2=NC(C)(C(C)C)C(=O)N2)c(C(=O)O)c1 (stereo not drawn) [Imazethapyr] | > 200 | 5.99 | 5.93 | 6.06 | 6.15 | 6.12 | 6.24 | 6.05
COP(N)(=O)SC (stereo not drawn) [Methamidophos] | > 200 | 5.74 | 5.85 | 5.85 | 5.88 | 5.89 | 5.93 | 5.87
Clc1cccc(Cl)c1 [1,3-Dichlorobenzene] | > 200 | 5.9 | 5.89 | 5.87 | 5.96 | 5.99 | 5.99 | 5.79
COC(=O)NS(=O)(=O)c1ccc(N)cc1 [Asulam] | > 200 | 6.06 | 5.99 | 5.51 | 6.04 | 5.49 | 5.99 | 5.83
CN/C(=N\[N+](=O)[O-])NCc1cnc(Cl)s1 [Clothianidin] | > 200 | 5.89 | 5.99 | 5.78 | 6.1 | 6.05 | 6.02 | 5.96
Cc1occc(=O)c1O [Maltol] | > 200 | 6.08 | 5.97 | 6.02 | 6.07 | 6 | 5.93 | 5.76
O=Cc1ccco1 [Furfural] | > 200 | 5.92 | 5.88 | 5.88 | 5.91 | 5.95 | 5.83 | 5.82
CC(C)(C)c1ccc(O)cc1 [4-tert-Butylphenol] | > 200 | 5.86 | 5.91 | 5.92 | 5.94 | 5.91 | 5.81 | 5.71
O=c1c(O)c(-c2ccc(O)c(O)c2)oc2cc(O)cc(O)c12 [2-(3,4-Dihydroxy-phenyl)-3,5,7-trihydroxy-chromen-4-one] | > 200 | 5.8 | 5.86 | 5.86 | 5.79 | 4.75 | 5.87 | 5.75
CCN(C(=O)c1cc(C)cc(OC[C@H](C)Nc2ccncc2)c1)C(C)C | > 200 | 5.67 | 5.78 | 5.59 | 5.63 | 5.56 | 5.61 | 5.82
Nc1nc(=S)c2[nH]cnc2[nH]1 [6-Thioguanine] | > 200 | 5.81 | 5.79 | 5.86 | 5.8 | 5.78 | 5.86 | 5.72
O=C(O)c1ccc2c(c1)nc(C(=O)NC1CCN(C3CC3)CC1)n2Cc1cc(-c2ccc(Cl)s2)on1 | > 200 | 5.76 | 5.81 | 5.71 | 5.87 | 5.82 | 5.69 | 5.86
COc1c(Cl)ccc(Cl)c1C(=O)O [Dicamba] | > 200 | 5.78 | 5.92 | 5.72 | 5.98 | 6.18 | 6.37 | 6.03
CCc1cc(C2=C(C(=O)O)N(c3ccccc3C(F)(F)F)S(=O)(=O)c3ccccc32)cc2c1OCO2 [Fandosentan potassium salt] | > 200 | 5.81 | 5.82 | 5.89 | 5.85 | 5.75 | 5.75 | 5.69
CN(C)CCCN(C)CCCN(C)C | > 200 | 5.82 | 5.85 | 5.88 | 5.85 | 5.81 | 5.89 | 5.96
c1ccc(OP(Oc2ccccc2)Oc2ccccc2)cc1 [Triphenyl phosphite] | > 200 | 5.86 | 5.75 | 5.77 | 5.81 | 5.75 | 5.95 | 5.72
CCCOC(=O)c1ccc(O)cc1 [Propylparaben] | > 200 | 5.95 | 5.95 | 5.9 | 5.92 | 5.84 | 5.87 | 5.79
O=C(Oc1ccccc1)c1cccc(C(=O)Oc2ccccc2)c1 [Diphenyl isophthalate] | > 200 | 5.87 | 5.89 | 5.87 | 5.87 | 5.94 | 5.94 | 5.7
CCOC(=O)CC(O)(CC(=O)OCC)C(=O)OCC [Triethyl citrate] | > 200 | 6.01 | 5.99 | 6.04 | 6.03 | 6.03 | 6.08 | 5.71
CNC(=O)/C=C(\C)OP(=O)(OC)OC [Monocrotophos] | > 200 | 5.81 | 5.76 | 5.74 | 5.78 | 5.79 | 5.77 | 6.07

Source: the supplement of paper PMC4858399
